From US5342980A, “Fungicidal agents” (American Cyanamid Company, priority 1992, dated 1994)

Assays:
[1] = system: Venturia inaequalis; test: In vivo fungicidal evaluation, Apple Scab (AS); conditions: 200 ppm, plants sprayed before inoculation
[2] = system: Plasmopara viticola; test: In vivo fungicidal evaluation, Grape Downy Mildew (GDM); conditions: 200 ppm, plants sprayed before inoculation
[3] = system: Botrytis cinerea; test: In vivo fungicidal evaluation, Pepper Botrytis (PB); conditions: 200 ppm, plants sprayed before inoculation
[4] = system: Pyricularia oryzae; assay type: in vivo; conditions: 200 ppm, plants sprayed before inoculation
[5] = system: Cercospora beticola; test: In vivo fungicidal evaluation, Sugar Beet Cercospora (SBC); conditions: plants sprayed before inoculation
[6] = system: Alternaria solani; test: In vivo fungicidal evaluation, Tomato Early Blight (TEB); conditions: 200 ppm, plants sprayed before inoculation
[7] = system: Puccinia recondita f. sp. tritici; test: In vivo fungicidal evaluation, Wheat Leaf Rust (WLR); conditions: 200 ppm, plants sprayed before inoculation
[8] = system: Erysiphe graminis f. sp. tritici; test: In vivo fungicidal evaluation, Wheat Powdery Mildew (WPM); conditions: 200 ppm, plants sprayed before inoculation
[9] = system: Rhizoctonia solani; test: In vivo fungicidal evaluation, Rice Sheath Blight (RSB); conditions: 400 ppm, plants sprayed before inoculation
[10] = system: Cercospora arachidicola; test: In vivo fungicidal evaluation, Peanut Cercospora Early Leaf Spot (PCE); conditions: 400 ppm, plants sprayed before inoculation
[11] = system: Pseudocercosporella herpotrichoides; test: In vivo fungicidal evaluation, Wheat Eyespot (WES); conditions: 400 ppm, plants sprayed before inoculation
[12] = system: Fusarium oxysporum f. sp. cucumerinum; test: In vitro fungicidal evaluation, growth inhibition (FUSOXC); assay type: cell-based; design: scale not given here; conditions: 25 ppm, 3-4 days at 21° C.
Procedure: (§1) Test compounds are dissolved in acetone and dispersed into cell well plates containing a suspension of ground fungal mycelia in a nutrient broth. Assay plates are incubated for 3-4 days at 21° C. Growth inhibition is measured visually and is rated using the following scale:
(§2) Untreated controls, solvent blanks and reference standards are included in each test.
(§3) Assay fungi include the plant pathogens, Pythium ultimum (Pythul); Rhizoctonia solani (Rhizso); Fusarium oxysporum f. sp. cucumerinum (Fusoxc); and Pseudocercosporella herpotrichoides (Psdche).
(§4) When more than one test is run, the data are averaged.

[13] = system: Pseudocercosporella herpotrichoides; test: In vitro fungicidal evaluation, growth inhibition (PSDCHE); assay type: cell-based; design: scale not given here; conditions: 25 ppm, 3-4 days at 21° C.
Procedure: as §1, §2, §3, §4

[14] = system: Pythium ultimum; test: In vitro fungicidal evaluation, growth inhibition (PYTHUL); assay type: cell-based; design: scale not given here; conditions: 25 ppm, 3-4 days at 21° C.
Procedure: as §1, §2, §3, §4

[15] = system: Rhizoctonia solani; test: In vitro fungicidal evaluation, growth inhibition (RHIZSO); assay type: cell-based; design: scale not given here; conditions: 25 ppm, 3-4 days at 21° C.
Procedure: as §1, §2, §3, §4

[16] = system: Mycosphaerella fijiensis; test: Control of banana black sigatoka on banana seedlings; assay type: in vivo; conditions: 200 ppm, leaves sprayed to run-off; 28 to 40 days post inoculation
Procedure: Test compounds are dissolved in acetone and diluted with distilled water containing about 0.05% TWEEN 20® to give a concentration of 200 ppm. Banana seedlings at the 6-7 leaf stage are sprayed with test solution on the upper and lower surfaces of the 3 youngest, unfurled leaves to the point of run-off, dried and inoculated with a spore suspension of Mycosphaerella fijiensis. The inoculated banana seedlings are placed outdoors in a plastic tunnel lined with wet jute sacks. The temperature is maintained between about 25° and 32° C. and the relative humidity is maintained between about 85% and 100%. After five days, the banana seedlings are transferred to a partially shaded screenhouse, surrounded with wet jute sacks and misted daily. When disease symptom development is optimal, typically 28 to 40 days post inoculation, the banana seedlings are rated for disease control according to the rating scale shown below. Each test contains inoculated treated plants, inoculated untreated plants and a reference standard. When more than one test is run, the data are averaged.

[17] = system: Fusarium oxysporium f. sp. cucumerinum; test: Control of soil borne diseases, Cucumber Fusarium Wilt (CUFO); assay type: in vivo; conditions: 14-18 days after treatment; also: ranges in brackets are in %
Procedure: (§5) Pasturized soil (100 mL) is added to 6 cm diameter plastic cups without drainage holes and covered with pathogen contaminated soil (30 mL). Ten germinated cucumber seeds are planted on the contaminated soil and the seeds are covered with pasteurized soil (20 mL). Test compounds are dissolved in acetone, diluted with deionized water containing about 0.05% TWEEN 20®, and applied to the pots by drenching the soil surface with 15 mL of test solution. The pots are placed in a greenhouse for disease development. The pots are watered lightly until plants emerge from the soil surface. Disease evaluations are made 14-18 days after treatment according to the rating scale shown below.

[18] = system: Pythium aphanidermantum; test: Control of soil borne diseases, Cucumber damping-off by Pythium (CUPA); assay type: in vivo; conditions: 14-18 days after treatment; also: ranges in brackets are in %
Procedure: as §5

[19] = system: Rhizoctonia solani; test: Control of soil borne diseases, Cucumber damping-off by Rhizoctonia (CURS); assay type: in vivo; conditions: 14-18 days after treatment; also: ranges in brackets are in %
Procedure: as §5

Structure (SMILES): CN([O-])C(=S)C(=O)C(C)(C)C.CN([O-])C(=S)C(=O)C(C)(C)C.[Cu+2] [N,3,3-trimethyl-2-oxo-1-thiobutyrohydroxamic acid copper(+2) chelate]
- disease control rating, AS [1]: 8.0
- disease control rating, GDM [2]: 7.7
- disease control rating, PB [3]: 6.5
- disease control rating, RB [4]: 0.0
- disease control rating, SBC ([5]; 200 ppm): 7.2
- disease control rating, SBC ([5]; 400 ppm): 6.1
- disease control rating, TEB [6]: 9.0
- disease control rating, WLR [7]: 6.5
- disease control rating, WPM [8]: 5.0
- disease control rating, RSB [9]: 4.7
- disease control rating, PCE [10]: 7.0
- disease control rating, WES [11]: 6.7
- growth inhibition rating, FUSOXC [12]: 4.8
- growth inhibition rating, PSDCHE [13]: 8.5
- growth inhibition rating, PYTHUL [14]: 8.0
- growth inhibition rating, RHIZSO [15]: 8.5
- Control of Banana Black Sigatoka (rating) [16]: 6.3
- disease control rating, CUFO ([17]; 2.5 kg/ha soil drench): 3 (30-40)
- disease control rating, CUFO ([17]; 5.0 kg/ha soil drench): 5 (60-70)
- disease control rating, CUFO ([17]; 10.0 kg/ha soil drench): 6 (75-85)
- disease control rating, CUPA ([18]; 2.5 kg/ha soil drench): 1 (5-10)
- disease control rating, CUPA ([18]; 5.0 kg/ha soil drench): 2 (15-25)
- disease control rating, CUPA ([18]; 10.0 kg/ha soil drench): 1 (5-10)
- disease control rating, CURS ([19]; 2.5 kg/ha soil drench): 5 (60-70)
- disease control rating, CURS ([19]; 5.0 kg/ha soil drench): 6 (75-85)
- disease control rating, CURS ([19]; 10.0 kg/ha soil drench): 9 (100)
